Measurements reported in patent US9718790B2, “Triazine derivative and pharmaceutical composition having an analgesic activity comprising the same” (SHIONOGI & CO., LTD., priority 2010, dated 2017).

Molecular target: human P2X3 receptor (Homo sapiens (Human), UniProt P56373)
Assay: Evaluation of human P2X3 receptor inhibitory activity (Fluo-3 calcium fluorescence, FDSS 3000, ATP stimulation);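 further: stimulus was 50 nM ATP with fluorescence followed for 3 min, and the response per well was peak post-ATP fluorescence divided by the reading at measurement start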
Type: cell-based
[1] = C6BU-1 cells stably expressing human P2X3 receptor
[2] = C6BU-1 cells stably expressing human P2X3 receptor, Fluo-3 fluorescence, FDSS 3000
[3] = human P2X3 receptor, Test Example 1

Sequence of human P2X3 receptor (P56373 whole entry): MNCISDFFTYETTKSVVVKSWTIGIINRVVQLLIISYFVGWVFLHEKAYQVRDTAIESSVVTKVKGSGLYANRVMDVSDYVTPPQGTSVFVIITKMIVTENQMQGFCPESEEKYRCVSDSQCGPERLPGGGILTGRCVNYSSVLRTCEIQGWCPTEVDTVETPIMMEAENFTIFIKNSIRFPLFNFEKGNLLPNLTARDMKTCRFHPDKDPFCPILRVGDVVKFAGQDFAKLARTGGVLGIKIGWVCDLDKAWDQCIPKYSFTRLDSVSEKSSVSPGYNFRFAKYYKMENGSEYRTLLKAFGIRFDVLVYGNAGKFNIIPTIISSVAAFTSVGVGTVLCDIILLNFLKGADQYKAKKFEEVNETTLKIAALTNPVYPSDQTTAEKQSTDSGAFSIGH

SMILES	IC50 [1] [nM]	other results
COc1cc(/N=c2\[nH]c(=O)n([C@@H](C)[C@@H](C)C(=O)O)c(=O)n2Cc2ccc(Cl)cc2)ccc1CC(C)C [Compound I-1366]	20	
COC(=O)[C@@H](C)Cn1c(=O)[nH]/c(=N\c2ccc3ncccc3c2)n(Cc2ccc(Cl)cc2)c1=O [Compound I-1318]	544	
CCOC(=O)CCCn1c(=O)[nH]/c(=N\c2ccc3oc(CC)c(C)c3c2)n(Cc2ccc(C)cc2)c1=O [Compound I-1627]		IC50 [2]: 9 nM
C[C@@H](C(=O)O)[C@H](C)n1c(=O)[nH]/c(=N\c2ccc3ncccc3c2)n(Cc2ccc(Cl)cc2)c1=O [Compound I-1834]		IC50 [2]: 325 nM
Cc1ccc(Cn2c(=O)n([C@@H](C)[C@@H](C)C(=O)O)c(=O)[nH]/c2=N\c2ccc(OC3CCC3)c(C)c2)cc1 [Compound I-1408]	16	
Cc1ccc(Cn2c(=O)n(C[C@H](C)C(=O)O)c(=O)[nH]/c2=N\c2ccc(/C=C/C3CC3)cc2)cc1 [Compound I-1200]	45	
C[C@@H](Oc1ccc(/N=c2\[nH]c(=O)n(CCC(N)=O)c(=O)n2Cc2ccc(Cl)cc2)cc1)C(F)(F)F [Compound I-1956]	34	
Cc1ccc(Oc2ccc(/N=c3\[nH]c(=O)n([C@H](C)[C@H](C)C(=O)O)c(=O)n3Cc3ccc(Cl)cc3)cc2)cn1 [Compound I-1389]	12	
CCn1c(=O)[nH]/c(=N\c2ccc(Oc3cccc(C(=O)O)c3)cc2)n(C[C@H]2CC[C@H](C)CC2)c1=O [Compound I-2354]		IC50 [3]: 3 nM
COC(=O)[C@@H](C)Cn1c(=O)[nH]/c(=N\c2ccc3c(c2)COCO3)n(Cc2ccc(Cl)cc2)c1=O [Compound I-0744]	53	
CCOc1ccc(/N=c2\[nH]c(=O)n(CC(F)(F)C(=O)O)c(=O)n2Cc2ccc(C)cc2)cc1Cl [Compound I-0858]		IC50 [3]: 22 nM
CCOC(=O)C1(Cn2c(=O)[nH]/c(=N\c3ccc(OCC(C)C)cc3)n(Cc3ccc(Cl)cc3)c2=O)CC1 [Compound I-1007]		IC50 [2]: 15 nM
CCOC(=O)CCn1c(=O)[nH]/c(=N\c2ccc(O[C@H](C)CC)c(C)c2)n(Cc2ccc(C)cc2)c1=O [Compound I-1019]		IC50 [2]: 7 nM
Cc1cc(Oc2ccc(/N=c3\[nH]c(=O)n(CCC(=O)O)c(=O)n3CC3CCC(C)CC3)cc2)ccn1 (centres unmarked) [Compound I-1976]	17	
COC(=O)[C@@H](C)Cn1c(=O)[nH]/c(=N\c2ccc(OC(F)(F)F)c(Cl)c2)n(Cc2ccc(C)cc2)c1=O [Compound I-1027]		IC50 [2]: 41 nM
Cn1c(=O)[nH]/c(=N\c2ccc(Oc3cc(C(=O)O)n[nH]3)cc2)n(Cc2ccc(Cl)cc2)c1=O [Compound I-2411]		IC50 [3]: 166 nM

SMILES	IC50 [1] [nM]	other results
Cc1ccc(Cn2c(=O)n(C[C@H](C)C(N)=O)c(=O)[nH]/c2=N\c2ccc(CC(C)C)c(Cl)c2)cc1 [Compound I-1616]		IC50 [2]: 7 nM
COC(=O)[C@H](C)[C@H](C)n1c(=O)[nH]/c(=N\c2ccc(Oc3cccnc3)cc2)n(Cc2ccc(Cl)cc2)c1=O [Compound I-1377]	7	
CCOC(=O)CCn1c(=O)[nH]/c(=N\c2ccc(Oc3ccc(OC)nc3)cc2)n(Cc2ccc(Cl)cc2)c1=O [Compound I-1523]		IC50 [3]: 3 nM
Cc1ccc(Oc2ccc(/N=c3\[nH]c(=O)n(CC(N)=O)c(=O)n3Cc3ccc(Cl)cc3)cc2)cn1 [Compound I-1944]	11	
CC(C)Oc1ccc(/N=c2\[nH]c(=O)n(CC(=O)NC(CO)CO)c(=O)n2Cc2ccc(Cl)cc2)cc1Cl [Compound I-0665]	4	
C[C@@H](C(=O)O)[C@H](C)n1c(=O)[nH]/c(=N\c2ccc3c(c2)CC/C3=N\O)n(Cc2ccc(Cl)cc2)c1=O [Compound I-1777]		IC50 [2]: 636 nM
Cc1ccc(Cn2c(=O)n(CC(C)(C)C(=O)O)c(=O)[nH]/c2=N\c2cccc(C(F)(F)F)c2)cc1 [Compound I-1271]	32	
CCCCCOc1ccc(/N=c2\[nH]c(=O)n(C[C@H](C)C(=O)OC)c(=O)n2Cc2ccc(C)cc2)cc1 [Compound I-1057]		IC50 [2]: 89 nM
CCn1c(=O)[nH]/c(=N\c2ccc(Oc3cccnn3)cc2)n(Cc2ccc(Cl)cc2)c1=O [Compound I-2611]		IC50 [3]: 14 nM
CC(C)Oc1ccc(/N=c2\[nH]c(=O)n(C[C@H]3CC(=O)N([C@@H](C)c4ccccc4)C3)c(=O)n2Cc2ccc(Cl)cc2)cc1F [Compound I-0661]	7	
CCn1c(=O)[nH]/c(=N\c2ccc(Sc3ccc(C(=O)O)cc3)cc2)n(Cc2ccc(Cl)cc2)c1=O [Compound I-2603]		IC50 [3]: 125 nM
N#Cc1cccc(Oc2ccc(/N=c3\[nH]c(=O)n(CCC(=O)O)c(=O)n3Cc3ccc(Cl)cc3)cc2)n1 [Compound I-2667]		IC50 [3]: 10 nM
CCn1c(=O)[nH]/c(=N\c2ccc(Oc3ccnc(NC(C)=O)c3)cc2)n(Cc2ccc(Cl)cc2)c1=O [Compound I-2216]	5	
CCn1c(=O)[nH]/c(=N\c2ccc(Oc3cccc(CCC(=O)OC)c3)cc2)n(Cc2ccc(Cl)cc2)c1=O [Compound I-2225]		IC50 [3]: 61 nM
CCOc1ccc(/N=c2\[nH]c(=O)n(C[C@H](C)C(=O)O)c(=O)n2Cc2ccc(C)cc2)cc1Cl [Compound I-0682]	23	
Cc1ccc(Cn2c(=O)n(C[C@H](C)C(=O)O)c(=O)[nH]/c2=N\c2ccc(Oc3ccnc(C)c3)cc2)cc1 [Compound I-1269]	8	
